Data on three compounds can be found in patent US20040166151A1, “Lipid-based drug delivery systems containing phospholipase A2 degradable lipid derivatives and the therapeutic uses thereof” (priority 2000, published 2004).

Data set [1] deals with human red blood cells (RBC). Description: Hemolysis assay. To be noted: low concentrations, 37° C., 20 hours.
Description: Briefly, each sample was serially diluted with phosphate buffered saline (PBS), and 0.5 ml of each dilute suspension was mixed with 0.5 ml washed human red blood cells (RBC) [4% in PBS (v/v)]. Sample and standard were placed in a 37° C. incubator and agitated for 20 hours. Tubes were centrifuged at low speed (2000×G) for 10 minutes and 200 μl of the supernatant was quantitated by absorbance at 550 nm. 100 percent hemolysis was defined as the maximum amount of hemolysis obtained from the detergent Triton X-100.
1-O-octadecyl-2-O-methyl-sn-glycero-3-phosphocholine (ET-18-OCH3) in PBS was included in the assay as a reference.
Briefly, each sample was serially diluted with PBS, and 0.5 ml of each dilute suspension of 1-O-DPPC liposomes were mixed with 0.5 ml washed human red blood cells (RBC) [4% in PBS (v/v)]. For controls, 0.5 ml of the red blood cell suspension was mixed with either 0.5 ml buffer solution (negative hemolysis control) or 0.5 ml water (positive hemolysis control). Samples and standard were placed in a 37° C. incubator and agitated for 20 hours. Tubes were centrifuged at low speed (2000×G) for 10 minutes to form RBCs pellets. 200 μl of the supernatant was quantitated by absorbance at 550 nm using a Perkin-Elmer 320 scanning spectrophotometer. 100 percent hemolysis was defined as the maximum amount of hemolysis obtained from the detergent Triton X-100.
A further data set concerns mice. Description: In vivo hemolysis assay. The settings on record: i.v., 50 mg/kg.
In another data set the target is T1, extracellular PLA2 (Agkistrodon piscivorus piscivorus, UniProt P51972).
T1 construct: Purified snake venom PLA2 (Agkistrodon piscivorus piscivorus) was a generous gift; tissue gift from dr; R. L. Biltonen; host or cells: snake venom of Agkistrodon piscivorus piscivorus
T1 sequence (P51972 1-123): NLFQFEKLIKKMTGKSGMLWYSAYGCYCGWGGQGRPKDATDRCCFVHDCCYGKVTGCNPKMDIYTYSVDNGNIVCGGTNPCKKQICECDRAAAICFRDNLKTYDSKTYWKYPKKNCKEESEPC
Description: Effect of cholesterol content of liposomes on extracellular PLA2 activity. Type of data set: biochemical. An excerpt:
Short-chain phospholipids, such as didecanoyl phosphatidylcholine (DCPC), activate extracellular PLA2. The effect on calcein permeation across the target membranes induced by incorporation of a small amount of DCPC into the carrier PEG-liposomes is also shown in FIG. 12.a. […] In contrast we find that a small amount of cholesterol (≈3 mol %) activates extracellular PLA2. These significant findings are of particular interest since the blood circulation time of PEG-liposomes has been reported to be almost the same without cholesterol as with large amounts of cholesterol.

Data set [2] in a line: Calcein release across target membrane on adding hydrolysis products in the absence of PLA2. The settings on record: 25 μM target membranes, 39° C.
Description: Total release after 20 min of the fluorescent model drug calcein across the target membrane as a function of adding increasing amounts of lyso-palmitoyl phospholipid and palmitic acid, separately, and in a 1:1 mixture. The concentration of the target membranes is 25 μM in a HEPES buffer with pH=7.5 at a temperature of 39° C.
The experimental model system consists of a polymer-coated liposome carrier and a model target membrane. The carrier is a 100 nm unilamellar liposome made of dipalmitoyl phosphatidylcholine lipids (DPPC) with 2.5 mol % lipopolymer of the type dipalmitoyl phosphatidylethanolamine (DPPE)-PEG2000. The target membrane is another liposome made of 1,2-O-dioctadecyl-sn-glycero-phosphatidylcholine (D-O-SPC) which is a phospholipid where the acyl linkages of the stearoyl chains are ether bonds. In contrast to DPPC, D-O-SPC is inert towards PLA2-catalysed hydrolysis thereby mimicking the stability of an intact target cell membrane toward degradation by its own enzymes. […] The permeation of calcein across the D-O-SPC target membrane is subsequently monitored by the increase in fluorescence. […]

Description for mice: Groups of mice (n=5/group; weight 18-22 g) were treated i.v. with buffer (PBS), ET-18-OCH3 (50 mg/kg), and liposomes composed of 1-O-DPPC with 5 mol % 1-O-DPPE-PEG2000 (68.7 and 137.5 mg/kg). 30 min after injection, 100 μl blood was collected into heparinised tubes directly from decapitated, CO2-anesthetised mice. The blood was centrifuged at 500×G for 10 min, and plasma was removed and stored at −20° C. until analysed.
The degree of hemolysis was measured by absorbance at 550 nm using a Perkin-Elmer 320 scanning spectrophotometer. 25 μl plasma was mixed with 2,5 ml PBS or 2.5 ml 10% triton X-100. 100 percent hemolysis was defined as the maximum amount of hemolysis obtained from the plasma of PBS treated mice mixed with 10% Triton X-100 and 0 percent as plasma from PBS treated mice mixed with PBS.

With `CCCCCCCCCCCCCCCCCCOC[C@H](COP(=O)([O-])OCC[N+](C)(C)C)OC` [ET-18-OCH3], the “hemolysis (FIG. 6)” value in data set [1] is given as “significant degree of hemolysis”. Also, in the data set on mice, the “Survival (30 min), number of surviving mice” value is reported as 0/5 and the “mortality of treated mice” value is on record as “died within the 30 minutes period”.
As to `CC(C)CCC[C@@H](C)[C@H]1CC[C@H]2[C@@H]3CC=C4C[C@@H](O)CC[C@]4(C)[C@H]3CC[C@]12C` [cholesterol], the “extracellular PLA2 activity” value was “activates” at extracellular PLA2 (≈3 mol % cholesterol incorporated into liposomes) and “deactivated” at extracellular PLA2 (≈20 mol % cholesterol incorporated into liposomes, data not shown).
Consider `CCCCCCCCCCCCCCCC(=O)O` [fatty acid, palmitic acid], for which, in data set [2], the “rate of calcein release across the target membrane (FIG. 13)” value was “increased rate”.
